Reference: publication PMC11986105, “Antibacterial macrocyclic peptides reveal a distinct mode of BamA inhibition” (Nature Communications, 2025)
≈ marks a conversion by molar mass, not a printed value. Like-named read-outs stand apart in the source and are kept apart here. Bridge positions count the residues as written; N and C are the ends. Square brackets hold non-standard residues; d marks the D form. Peptide text beside a SMILES is read from it. Gly(NCH2CH2Ph) = O=C(O)CNCCc1ccccc1; NMeF = CN[C@@H](Cc1ccccc1)C(=O)O; Tic = O=C(O)[C@@H]1Cc2ccccc2CN1

How the values were obtained:
[1] = tested on: E. coli BamA101 (JCM972, MC4100 bamA101); format: cell-based, Escherichia coli; conditions: in solution, CAMHB broth microdilution
Method: (§1) The MICs of the cyclic peptides obtained in the mRNA display screens against E. coli strains JCM158 and JCM972 were measured using broth microdilution in cation-adjusted Mueller−Hinton broth (CAMHB), as recommended by the Clinical and Laboratory Standards Institute. In addition, zone of inhibition (ZOI) assays using JCM158, JCM972, AM710, AM711, MB5746, Acinetobacter baumannii ATCC17987, Pseudomonas aeruginosa MB5919, and Staphylococcus aureus Col were performed to provide a visual display of the relative susceptibility of the strains to the peptides. Briefly, ZOI studies were performed by first growing the bacteria in CAMHB to late exponential phase at 37 °C. Molten CAMHA (CAMHB containing 1.2% agar) was equilibrated to 48 °C in a water bath for 60 min. Cells were then mixed with 30 mL of the molten CAMHA at a 1:1000 dilution and immediately poured onto an Omni-tray plate (NUNC cat# 242811). The agar plate was kept at room temperature for 20 min to solidify and further dried in a biosafety cabinet for ~20 min. Each peptide was dissolved in DMSO, and 2–5 µL aliquots were dispensed onto the top of the plate in a two-fold dilution series in which the peptides were diluted in DMSO. After the liquid was absorbed, plates were incubated at 37 °C for 18 h, and images were acquired using a Hi-Res imaging system.

[2] = tested on: E. coli WT (JCM158, MC4100 ara^r); format: cell-based, Escherichia coli
Method: as §1

[3] = target: T1, E. coli BamA β-barrel (Escherichia coli, UniProt P0A940); assay: SPR binding to E. coli BamA β-barrel; conditions: for KD: SPR, N-terminally biotinylated E. coli BamA β-barrel, single cycle kinetics, average of 2, 3, or 4 replicates ± SD; for kon: pH 7.5, read-out: ka
T1 construct: residues 421–810 from strain MG1655; made in house
From the text: For SPR, E. coli K-12 BamA (EcBamA; residues 421–810 from strain MG1655), A. baumannii BamA (AbBamA; residues 425–841 from strain ATCC19606) and P. aeruginosa BamA (PaBamA; residues 420–797 from strain PAO1) were synthesized and cloned into pET23b (Millipore Sigma) with a N-terminal Avitag for biotin conjugation. For mRNA display screening, an additional E. coli BamA (421–810) construct (EcBamA′) was designed with an N-terminal His tag, a TEV protease cleavage site, and three point mutations (C690S/C700S/S752C) to allow for site specific biotinylation of residue 752.
For peptide binding assays a Cytiva Series S CAP sensor chip was loaded onto a Biacore T200, and the chip surface was prepared according to the manufacturer’s recommendations. The running buffer was 10 mM HEPES pH 7.5, 150 mM NaCl, 0.1% LDAO. Briefly, the CAP reagent (Cytiva) was diluted 1:10 in HBS-EP buffer (0.01 M HEPES pH 7.4, 0.15 M NaCl, 3 mM EDTA, 0.005% v/v Surfactant P20) and flowed across the chip surface for 300 sec. Biotinylated EcBamA, PaBamA, or AbBamA was then immobilized on the surface by flowing the protein over the chip for 200 sec. Cyclic peptides were injected at concentrations of 12.3, 37, 111, 333 and 1000 nM in single-cycle kinetic mode for 120 sec followed by a 120 sec dissociation period, and after the highest concentration of peptide was injected the dissociation period was 1200 sec. The chip surface was regenerated after each peptide was tested by flowing regeneration solution (8 M guanidine HCl, 1 M NaOH) over the chip surface.

[4] = tested on: EspP(G1123R) assembly in AD202 (bamA+); assay: Pulse-chase assembly of slow mutant EspP(G1123R) in AD202; format: cell-based, Escherichia coli; conditions: for effect on EspP(G1123R) assembly when added after the mutant binds to BAM: added 2 min after the start of the chase, peptides 2x MIC, EDTA 2.5 mM, sorbitol 0.8 M
Method: AD202 (MC4100 ompT::kan) transformed with pJH224 [Ptrc-espP(G1123R)] were grown to log phase in M9, the expression of espP(G1123R) was induced by adding 10 µM IPTG, and cells were subjected to pulse-chase labeling. […] Immunoprecipitations were performed using an anti-EspP C-terminal peptide antiserum and proteins were resolved by SDS-PAGE. Representative experiments are shown (left), and the completion of EspP(G1123R) assembly was quantitated by calculating the percent of radiolabeled proEspP(G1123R) that underwent autocatalytic cleavage in untreated cells (control) or cells treated with the indicated peptide 2 min after the start of the chase (red arrows) in three biologically independent experiments (right). […] The data are presented as mean values and error bars represent the SEM. In C 2.5 mM EDTA was added 2 min post-chase, and in E cells were harvested and resuspended in M9 (control) or M9 containing 0.8 M sorbitol 2 min post-chase. A representative experiment is shown (left), and the assembly of EspP(G1123R) in cells treated with EDTA or sorbitol or untreated (control) in three biologically independent experiments was quantitated as in B (right).
To analyze the assembly of OMPs in living cells, overnight cultures of HDB164 (MC4100 ara^R bamA101 ompT::spc) transformed with pJH110 (Ptrc-espPΔ5)[65] or AD202 transformed with pRSL5 (Ptrc-espP)[77] or pJH224 [Ptrc-espP (G1123R)][67] were grown in M9 supplemented with 100 μg/mL ampicillin (M9/ampicillin) at 37 °C. The overnight cultures were washed in M9 and added to 50 ml fresh M9/ampicillin at OD550 = 0.02. When the cultures reached OD550 = 0.2, IPTG (10 μM) was added and the cells were incubated for another 30 min at 37 °C before being subjected to pulse-chase labeling as previously described[66]. At each timepoint 1 ml aliquots were removed and proteins were precipitated by adding 10% (v/v) TCA. […] As a control, an equal amount of DMSO was added. In some experiments, 2.5 mM EDTA, pH 8 was added instead of a cyclic peptide. […]

[5] = tested on: AD202 transformed with pJH224; conditions: 2.5 mM EDTA or peptide at 2x MIC, 5 or 15 min
Method: Overnight cultures of AD202 transformed with pJH224 were grown at 37 °C in M9/ampicillin, washed, and added to 55 ml of fresh medium at OD550 = 0.02. When cultures reached OD550 = 0.2, 10 μM IPTG was added and cultures were incubated at 37 °C for an additional 15 min. Cultures were then divided into five 10 ml aliquots and placed into 15 ml tubes. Cells were pelleted in 15 ml tubes (3000 x g, 15 min, room temperature), resuspended in 1 ml pre-warmed M9 and transferred to 50 ml tubes. […] Cells were then placed into 1.7 ml tubes on ice for 5 min and centrifuged (2900 x g, 6 min, 4 °C). The cell pellet was discarded and the supernatant was centrifuged in a TLA.2 rotor in a Beckman Optima MAX-TL ultracentrifuge (100,000 x g, 30 min, 4 °C). Once again the pellet was discarded, and 5 mL 4x LDS sample buffer was then added to 20 mL of each supernatant (which represents the culture medium of ~0.05 OD equivalents), and molecules located in the culture medium were resolved by SDS-PAGE on 12% Novex Tris-Bis minigels (ThermoFisher) using MES running buffer. LPS was visualized using the Molecular Probes Pro-Q Emerald 300 Lipopolysaccharide Gel Stain Kit (ThermoFisher) following the manufacturer’s instructions.

[6] = tested on: EspP(G1123R) assembly in AD202 (bamA+); set-up: method as in PMID 36165532; conditions: cited from earlier work
[7] = tested on: wild-type EspP assembly in AD202; assay: Pulse-chase assembly of wild-type EspP in AD202; format: cell-based, Escherichia coli; conditions: 0.8 M sorbitol 2 min after start of chase, 28 °C
Method: To analyze the assembly of OMPs in living cells, overnight cultures of HDB164 (MC4100 ara^R bamA101 ompT::spc) transformed with pJH110 (Ptrc-espPΔ5)[65] or AD202 transformed with pRSL5 (Ptrc-espP)[77] or pJH224 [Ptrc-espP (G1123R)][67] were grown in M9 supplemented with 100 μg/mL ampicillin (M9/ampicillin) at 37 °C. The overnight cultures were washed in M9 and added to 50 ml fresh M9/ampicillin at OD550 = 0.02. When the cultures reached OD550 = 0.2, IPTG (10 μM) was added and the cells were incubated for another 30 min at 37 °C before being subjected to pulse-chase labeling as previously described[66]. At each timepoint 1 ml aliquots were removed and proteins were precipitated by adding 10% (v/v) TCA. […] As a control, an equal amount of DMSO was added. […] Radioactive proteins were visualized on a Fuji FLA 9000 imager using phoshophorimaging settings, and data was quantitated using Fuji MultiGauge v.
For experiments that involved EspP or EspP derivatives, the accumulated β-barrel was defined as the normalized β-barrel signal, where the normalization factor was (preproEspPsignal + proEspPsignal + β-domainsignal) at the 0 min timepoint for each condition and each experiment. For some experiments that involved EspP or EspP derivatives, the percent cleavage at each timepoint was also measured and was defined as [β-barrel signal /(proEspPsignal + β-barrelsignal)] x 100. […]

Compound | MIC E. coli BamA101 [1] | KD [3] | MIC E. coli WT ([2]; JCM158, 18 h) | kon [3] | effect on EspP(G1123R) assembly when added after the mutant binds to BAM [4] | further results
CC(C)C[C@@H]1NC(=O)[C@H](Cc2ccccc2)NC(=O)CSC[C@@H](C(=O)NCC(N)=O)NC(=O)[C@H](CC(=O)O)NC(=O)[C@H](Cc2ccccc2)N(C)C(=O)CNC(=O)[C@H](CCCNC(=N)N)NC(=O)[C@H](C(C)C)NC(=O)[C@@H]2CCCN2C(=O)[C@H](CCCNC(=N)N)NC(=O)[C@H](Cc2c[nH]cn2)NC(=O)[C@H](Cc2ccc(O)cc2)NC(=O)[C@H](Cc2ccccc2)N(C)C(=O)[C@H](Cc2c[nH]c3ccccc23)NC1=O [CP1, F.L.W.MePhe.Y.H.R.P.V.R.G.MePhe.D.C.G] ({CH2CO}-FLW[NMeF]YHRPVRG[NMeF]DCG-NH2; thioether N-14) | 12.5 µM (≈ 24.6 µg/mL) | low-nanomolar range | – | – | – | MIC E. coli WT ([2]; in solution, CAMHB broth microdilution): > 50 µM
CC(C)[C@@H]1NC(=O)[C@H](CO)NC(=O)[C@H](CCCNC(=N)N)NC(=O)[C@H](CO)NC(=O)[C@@H]2CCCN2C(=O)[C@H](Cc2c[nH]c3ccccc23)NC(=O)[C@@H]2Cc3ccccc3CN2C(=O)[C@H](Cc2c[nH]c3ccccc23)NC(=O)[C@H](CCCNC(=N)N)NC(=O)CNC(=O)[C@H](CO)NC(=O)[C@H](Cc2ccccc2)NC(=O)CSC[C@@H](C(=O)NCC(N)=O)NC(=O)CNC1=O [CP2, F.S.G.R.W.Tic.W.P.S.R.S.V.G.C.G] ({CH2CO}-FSGRW[Tic]WPSRSVGCG-NH2; thioether N-14) | 6.3 µM (≈ 11.2 µg/mL) | low-nanomolar range | > 50 µM | 430000 ± 2.9e+10 M⁻¹ s⁻¹ | – | –
CC(C)C[C@@H]1NC(=O)CN(CCc2ccccc2)C(=O)[C@H](Cc2ccc(O)cc2)NC(=O)[C@H](CCCNC(=N)N)NC(=O)[C@H](CCCNC(=N)N)NC(=O)[C@H](Cc2ccccc2)NC(=O)CSC[C@@H](C(=O)NCC(N)=O)NC(=O)[C@H](Cc2ccc(O)cc2)NC(=O)[C@@H]2Cc3ccccc3CN2C(=O)[C@H](C(C)C)NC(=O)[C@H](Cc2c[nH]c3ccccc23)NC(=O)[C@H](Cc2ccc(O)cc2)NC(=O)[C@H](CC(N)=O)NC(=O)[C@H](CC(=O)O)NC1=O [CP3, F.R.R.Y.PeGly.L.D.N.Y.W.V.Tic.Y.C.G] ({CH2CO}-FRRY[Gly(NCH2CH2Ph)]LDNYWV[Tic]YCG-NH2; thioether N-14) | 6.3 µM (≈ 13.3 µg/mL) | low-nanomolar range | > 50 µM | 160000 ± 3e+09 M⁻¹ s⁻¹ | – | –
O=C(O)CN(CCN(CC(=O)O)CC(=O)O)CC(=O)O [EDTA] | – | – | – | – | accelerate | effect on EspP(G1123R) assembly, EDTA added prior to synthesis ([4]; 2.5 mM EDTA added 1 min or 5 min before the start of the chase): accelerates; release of LPS into the culture medium [5]: releasing LPS into the culture medium
NC(N)=NC(=O)CC(Nc1nc(N=C(N)N)nc(NC2CCC(NC(=O)Cn3nnc(-c4ccc(F)cc4)n3)CC2)n1)C1CC1 (centres unmarked) [MRL-494] | – | – | – | – | – | effect on EspP(G1123R) assembly when added after the protein binds to BAM [6]: inhibit the assembly
OC[C@@H](O)[C@@H](O)[C@H](O)[C@@H](O)CO [sorbitol] | – | – | – | – | accelerate | effect on assembly of wild-type EspP, sorbitol [7]: slightly delay
